2 compounds from US12134594B2, “Composition and application thereof as antitumor drug” (Guangdong Jianersheng Pharmaceutical Technology Co., Ltd., priority 2018, dated 2024) can be followed below.

The nature of data set [1]: blood BUN and creatinine (kidney injury markers) in 4T1 mouse model. Type of data set: in vivo. The following applies: 3 weeks. How it is done:
The control group was intraperitoneally (i.p.) administrated with 0.9% normal saline. […] All mice were treated for 3 weeks.
An EDTA tube was used to collect whole blood for a complete blood count (CBC) test. Plasma was collected by centrifugation blood collected in a heparin-coated tube. The plasma was used to carry out tests and analyses including CBC and a blood chemical test; plasma BUN and creatinine level were markers of kidney injury.
A 4T1 breast cancer mouse model was used to evaluate the antitumor ability and protective effect of the novel compound. […] When the novel compound was used for intervention, BUN level dropped by 46% to 47.6 mg/dl.

Data set [2] in a line: kidney histopathology (HE) in 4T1 mouse model. Type of data set: in vivo. The following applies: 3 weeks. How it is done:
The control group was intraperitoneally (i.p.) administrated with 0.9% normal saline. […] All mice were treated for 3 weeks. Histopathological examination of mouse tissues: histopathological changes of the kidney were examined by a 4 μm-thick deparaffinized section stained with hematoxylin and eosin (HE). To evaluate tubular damages, dilation, necrosis, apoptosis, and cast formation of renal tubules were assessed via 10 different fields of view (Zeiss Axio imager electrofluorescence microscope) at the cortical medullary junction of the kidney.

Data set [3] in a line: metal and platinum amount in kidney by ICP-MS. Type of data set: in vivo, mouse. How it is done:
The control group was intraperitoneally (i.p.) administrated with 0.9% normal saline. […] All mice were treated for 3 weeks. The kidney was sliced, weighed and dissolved in 70% HNO3; blood plasma was diluted with 70% HNO3. The sample was heated by a 100° C. hot block until thoroughly evaporated. All solid residues were re-dissolved in 5 mL of 2% HNO3. Platinum was quantified by inductively coupled plasma mass spectrometry (ICP-MS).

Data set [4] concerns HK2 cells. As to the kind of experiment: platinum content in HK2 cells by ICP-MS. Type of data set: cell-based, human. How it is done: The amount of platinum in the cells was determined by an IPC-MS assay.
Platinum concentration was 8.33 ng/10^6 cells. […] Platinum concentration in the HK2 cells dropped by 38.0% to 5.16 ng/10^6 cells as a result.

For data set [5], the system named is HK2 cells. As to the kind of experiment: in vitro MTT cell viability assay, HK2 cells. Type of data set: cell-based, human. How it is done:
(§1) The cells involved in this example include a human renal proximal tubular cell line HK2 ([…]2190), a pig proximal tubular cell line LLC-PK1 ([…] 101) and a mouse breast cancer cell line 4[…]2539), which were all purchased from American Type Culture Collection. LLC-PK1 cells were cultured in Dulbecco modified Eagle's medium (DMEM), HK2 cells were cultured in DMEM/F12 medium, and 4T1 cells were cultured in RPMI 1640 medium. All cell media were supplemented with 10% FBS, 100 units/ml penicillin and 100 […]. The cell lines were incubated at 37° C. in a 5% CO2 atmosphere and subcultured twice a week. 3.2 In vitro cell viability assay The HK2 cells and the LLC-PK1 cells were treated with trypsin and inoculated in a 100 μL medium in a 96-well plate at a density of 10,000 cells/well. The cells were incubated for 24 h before treatment. To examine the toxicity of the novel compound, the cells were treated with different doses of the novel compound for 24 h. […] The medium was then changed, and the cells were treated with different doses of the novel compound for 48 h. After treatment, cell viability was measured by an MTT assay. 10 μL of a 12 mM MTT (3-(4,5-dimethylthiazol-2-yl)-2,5-diphenyltetrazolium bromide) stock solution was added into each well. After incubation for 4 h at 37° C., the medium was removed; 100 μL of dimethyl sulfoxide (DMSO) was added into each well, and then the plate was incubated for 10 min at 37° C. The plate was shaken in a plate oscillator, and a plate reader (Bio-Tek) was used to measure the absorbance at 570 nm.
On the technique in general: Tetrazolium assays rely on reduction of a dye to a coloured formazan, in cell work by metabolically active cells.

In the next data set the test system is LLC-PK1 cells. As to the kind of experiment: in vitro MTT cell viability assay, LLC-PK1 cells. Type of data set: cell-based, pig. How it is done: as §1
In a further data set the test system is mice. In words: acute oral lethal dose (LD50) in mice. Type of data set: in vivo, mouse. An excerpt:
(§2) According to the technical solutions provided by the present disclosure, the disclosure has the following beneficial effects: • 1. The novel compound in the composition has a high chelating effect on the platinum-based antitumor compound and toxic heavy metals. […] For example, in a test performed in a mouse model with 4T1 breast carcinoma xenografts, the composition combined treatment could better delay tumor growth and inhibit metastasis than administrating the platinum-based antitumor compound alone. • 4. […] Co-treatment using the composition could greatly reduce systemic toxicity in mice and reduce weight loss caused by administrating the platinum-based antitumor compound alone.

A further data set has as its system rats. As to the kind of experiment: acute oral lethal dose (LD50) in rats. Type of data set: in vivo, rat.
Text: as §2

Setting [6] is: after administration of cisplatin and GMDTC.

`N.N.[Cl][Pt][Cl]` [cisplatin]: the “average BUN level” value in data set [1] (mice, 5 mg/kg cisplatin i.p. twice a week) amounted to 87.9 mg/dL. In addition, in data set [2] (mice treated with 5 mg/kg cisplatin twice a week, 5 mg/kg), the kidney histopathology entry is “extensive necrosis and degeneration”. The kidney histopathology entry in data set [2] (mice treated with 5 mg/kg cisplatin twice a week, listed as Cisplatin, 5 mg/kg) was “extensive necrosis and degeneration of tubule cells”. Moreover, in data set [3] (setting [6]), the “Amount in kidney: 27Al” value was determined as 3.93 µg/g, the “Amount in kidney: 55Mn” value worked out at 0.92 µg/g, the “Amount in kidney: 65Cu” value was 4.13 µg/g and the “Amount in kidney: 66Zn” value is 24.4 µg/g. Moreover, the “Amount in kidney: 195Pt” value in data set [3] (setting [6]) was 9.841 µg/g. Moreover, in the data set on HK2 cells [4] (50 μM cisplatin, 24 h), the “platinum concentration in HK2 cells” value is 202.6 ng/10^6 cells. In addition, the “platinum concentration in HK2 cells” value with HK2 cells [4] (cisplatin (300 μM) exposure 30 min, removed, cultured 48 h) is on record as 8.33 ng/10^6 cells.

For `CSCC[C@@H](C(=O)[O-])N(C[C@H](O)[C@@H](O)[C@H](O)[C@H](O)CO)C(=S)[S-].[Na+].[Na+]` [GMDTC, sodium (S)-2-(dithiocarboxylate ((2S,3R,4R,5R)-2,3,4,5,6-pentahydroxyhexyl)amino)-4-(methylthio)butyrate], the “drop of BUN level” value in data set [1] (cisplatin + 500 mg/kg novel compound vs cisplatin alone) was 46%. For the same compound, the BUN level in data set [1] (mice, 5 mg/kg cisplatin twice a week + 500 mg/kg novel compound 2 h after cisplatin) amounted to 47.6 mg/dL. Further, the kidney histopathology result in data set [2] (mice co-treated with cisplatin and 500 mg/kg novel compound, compared with control group) was “no significant difference”. Further, the “impact on viability of HK2 cells compared with blank control” value in the data set on HK2 cells [5] (1000 μM, 24 h, MTT) is “not significantly”. For the same compound, the cell viability in the data set on HK2 cells [5] (HK2 cells pretreated with 300 μM cisplatin 30 min, then GMDTC for 48 h (FIG. 4)) is listed as 60 % of that of the control group; with HK2 cells [5] (HK2 cells, 50 μM cisplatin + increasing doses of novel compound, 24 h (FIG. 3A)), 80%. In addition, the concentration for half-maximal inhibition (IC50) was roughly 8 mM with HK2 cells [5] (HK2 cells, 24 h, MTT, read-out: IC50 (toxicity, cell viability)) and roughly 8 mM in the data set on LLC-PK1 cells (LLC-PK1 cells, 24 h, MTT, read-out: IC50 (toxicity, cell viability)). Moreover, in the data set with LLC-PK1 cells (400 μM, 24 h, MTT), the “impact on viability of LLC-PK1 cells compared with blank control” value is listed as “not significantly”. Moreover, the cytotoxicity on co-treatment entry with LLC-PK1 cells (LLC-PK1 cells, 50 μM cisplatin + novel compound, 24 h (FIG. 3B)) is “reduce cytotoxicity”. Also, the “effect on amount and distribution of normal (essential) metals in the body” value in data set [3] (mice, ICP-MS, compared with control mice (Table 1 and Table 2)) is recorded as “does not affect”. For the same compound, the “acute oral lethal dose (LD50)” value in the data set on mice and in the data set with rats was “greater than 10,000 mg/kg” throughout. In addition, the “drop of platinum concentration in HK2 cells” value in the data set on HK2 cells [4] (50 μM cisplatin + 1000 μM novel compound vs cisplatin alone) was determined as 91.5%; in the data set with HK2 cells [4] (rescue with 1000 μM novel compound after 30 min cisplatin vs no rescue), 38.0%. The “platinum concentration in HK2 cells” value was determined as 17.2 ng/10^6 cells in the data set on HK2 cells [4] (50 μM cisplatin co-administrated with 1000 μM novel compound, 24 h) and 5.16 ng/10^6 cells with HK2 cells [4] (cisplatin exposure 30 min, then 1000 μM novel compound intervention, 48 h).

A word on the cell viability: it is the share of living cells, or the viability signal relative to a control. The IC50 is the concentration that gives 50% inhibition.
